Each structure is given as a SMILES string.

These results are taken from publication PMC5802362 (Amino acids, 2016).

Chain of butyrylcholinesterase (P81908 whole entry): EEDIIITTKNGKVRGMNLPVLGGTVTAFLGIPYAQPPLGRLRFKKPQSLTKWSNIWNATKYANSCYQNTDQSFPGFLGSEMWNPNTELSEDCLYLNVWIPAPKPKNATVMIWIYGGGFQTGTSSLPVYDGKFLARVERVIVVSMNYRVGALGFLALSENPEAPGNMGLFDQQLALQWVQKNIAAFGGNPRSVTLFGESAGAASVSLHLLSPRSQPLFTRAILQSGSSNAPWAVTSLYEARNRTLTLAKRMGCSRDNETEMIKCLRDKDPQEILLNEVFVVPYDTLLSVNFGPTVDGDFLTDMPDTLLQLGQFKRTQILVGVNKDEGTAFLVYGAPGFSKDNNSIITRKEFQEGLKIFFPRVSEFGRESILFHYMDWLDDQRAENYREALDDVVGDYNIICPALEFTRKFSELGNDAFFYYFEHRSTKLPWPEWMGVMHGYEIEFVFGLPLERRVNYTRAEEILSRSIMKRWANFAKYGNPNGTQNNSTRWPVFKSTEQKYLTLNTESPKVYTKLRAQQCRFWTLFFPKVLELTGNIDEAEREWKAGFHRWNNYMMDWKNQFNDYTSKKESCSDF

One data set has as its target butyrylcholinesterase (Equus caballus, UniProt P81908). The data set can be described thus: Inhibition constant. In kind it is biochemical, equine. The settings on record: BChE, 100 µM butyrylthiocholine, 2 % methanol, 25 °C, pH 7.5.
On to `CC(C)C[C@H](NC(=O)OCc1ccccc1)C(=O)O` [Cbz-Leu-O^−], for which the Ki (usually a dissociation constant, usually derived from enzyme kinetics or from competition with a known ligand) worked out at 1150 ± 130 µM. On the same count and under the same terms, with `NCCCC[C@H](NC(=O)OCc1ccccc1)C(=O)O` [Cbz-Lys-O^−] the figure was 1540 ± 502 µM.

With `CC[C@H](C)[C@H](NC(=O)OCC1c2ccccc2-c2ccccc21)C(=O)O` [Fmoc-Ile-O^−], the affinity, expressed as Ki, was 194 ± 13 µM.

Turning to `CC(C)C[C@H](NC(=O)OCC1c2ccccc2-c2ccccc21)C(=O)O` [Fmoc-Leu-O^−], the Ki worked out at 115 ± 11 µM. Against the preceding molecule, the Ki is about 1.7-fold lower.

`NCCCC[C@H](NC(=O)OCC1c2ccccc2-c2ccccc21)C(=O)O` [Fmoc-Lys-O^−] showed a Ki of 150 ± 10 µM.

In the case of `O=C(N[C@@H](Cc1ccccc1)C(=O)O)OCC1c2ccccc2-c2ccccc21` [Fmoc-Phe-O^−], affinity was put at a Ki of 330 ± 15 µM. This Ki lies about 2.2-fold higher than the previous one. `O=C(N[C@@H](Cc1c[nH]c2ccccc12)C(=O)O)OCC1c2ccccc2-c2ccccc21` [Fmoc-Trp-O^−] registered a Ki of 193 ± 21 µM. `O=C(N[C@@H](Cc1ccc(O)cc1)C(=O)O)OCC1c2ccccc2-c2ccccc21` [Fmoc-Tyr-O^−] returned a Ki of 307 ± 13 µM. As to `CC(C)[C@H](NC(=O)OCC1c2ccccc2-c2ccccc21)C(=O)O` [Fmoc-Val-O^−], the affinity corresponds to a Ki of 313 ± 14 µM.

System in a further data set: not given
Test: not given
To be noted: calculated with VOIDOO; ref Saxena et al. 1997; cited from earlier work.
Consider `CCN(CC)C(C)CN1c2ccccc2Sc2ccccc21` (centres unmarked) [ethopropazine], for which the “van der Waals volume” value is given as 317.6 Å^3.

In a further data set the test system is BChE and AChE.
Test: not given
The settings on record: ref Saxena et al. 1997; cited from earlier work.
Regarding `CCN(CC)C(C)CN1c2ccccc2Sc2ccccc21` (centres unmarked) [ethopropazine], the “Difference in the KI value between BChE and AChE” value was 9000 fold.
